Results on 47 compounds are retold here after ChEMBL document CHEMBL4823307, “Discovery of benzimidazole derivatives as potent and selective aldehyde dehydrogenase 1A1 (ALDH1A1) inhibitors with glucose consumption improving activity” (Bioorg Med Chem, 2021).

Series [1] concerns the target T1, Aldehyde dehydrogenase 1A1 (Homo sapiens) (UniProt P00352).
T1 sequence (whole entry): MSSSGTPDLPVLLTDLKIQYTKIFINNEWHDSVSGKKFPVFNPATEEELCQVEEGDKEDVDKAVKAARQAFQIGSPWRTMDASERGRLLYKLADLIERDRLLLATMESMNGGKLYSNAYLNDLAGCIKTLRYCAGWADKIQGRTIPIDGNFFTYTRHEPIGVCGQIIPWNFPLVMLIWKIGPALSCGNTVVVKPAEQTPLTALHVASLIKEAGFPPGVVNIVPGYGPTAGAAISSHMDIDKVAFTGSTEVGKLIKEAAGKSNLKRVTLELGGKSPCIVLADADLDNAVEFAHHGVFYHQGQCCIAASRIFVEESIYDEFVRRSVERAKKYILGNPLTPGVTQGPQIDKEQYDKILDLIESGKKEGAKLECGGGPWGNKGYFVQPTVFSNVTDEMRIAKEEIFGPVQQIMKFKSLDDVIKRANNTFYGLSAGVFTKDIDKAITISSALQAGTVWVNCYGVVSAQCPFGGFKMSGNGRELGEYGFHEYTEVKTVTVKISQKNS
As to the kind of experiment: Inhibition of human ALDH1A1 assessed as NADH formation using propionaldehyde as substrate at 10 uM by spectrophotometry.

Series [2] has as its system HepG2. Kind of series: Increase in glucose consumption in human HepG2 cells at 10 uM by glucose oxidase assay. The class given is functional.
Series [3] in a line: Cytotoxicity against human HepG2 cells assessed as cell viability at 1 uM incubated for 24 hrs by MTT assay relative to control. The conditions noted are these: read-out: Activity. Type of series: cell-based. On the technique in general: Tetrazolium assays rely on reduction of a dye to a coloured formazan, in cell work by metabolically active cells.
Series [4] can be described thus: Cytotoxicity against human HepG2 cells assessed as cell viability at 10 uM incubated for 24 hrs by MTT assay relative to control. The class given is cell-based. The conditions noted are these: read-out: Activity.
The nature of series [5]: Cytotoxicity against human HepG2 cells assessed as cell viability at 0.1 uM incubated for 24 hrs by MTT assay relative to control. The class given is cell-based. As to conditions: read-out: Activity.
The target in series [6] is T2, Aldehyde dehydrogenase, mitochondrial (Homo sapiens, UniProt P05091).
T2 sequence (P05091 whole entry): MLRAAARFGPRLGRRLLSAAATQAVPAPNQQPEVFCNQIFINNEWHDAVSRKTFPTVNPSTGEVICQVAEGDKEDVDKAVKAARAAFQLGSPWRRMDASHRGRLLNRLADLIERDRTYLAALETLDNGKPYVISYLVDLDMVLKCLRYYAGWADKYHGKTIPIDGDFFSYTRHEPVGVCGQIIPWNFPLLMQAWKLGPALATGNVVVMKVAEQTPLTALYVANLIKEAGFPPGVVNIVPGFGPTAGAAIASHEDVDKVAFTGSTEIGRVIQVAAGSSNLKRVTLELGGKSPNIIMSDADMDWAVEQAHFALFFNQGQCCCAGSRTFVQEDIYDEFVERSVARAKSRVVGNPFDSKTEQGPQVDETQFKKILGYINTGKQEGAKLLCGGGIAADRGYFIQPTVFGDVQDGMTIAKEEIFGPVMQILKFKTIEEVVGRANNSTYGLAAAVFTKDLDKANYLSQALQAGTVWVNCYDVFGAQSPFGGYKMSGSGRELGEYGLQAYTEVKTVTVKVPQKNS
Kind of series: Inhibition of human ALDH2 assessed as NADH formation using propionaldehyde as substrate by spectrophotometry.

Series [7] relates to HepG2. As to the kind of experiment: Cytotoxicity against human HepG2 cells assessed as morphological changes at 0.1 to 10 uM incubated for 24 hrs. Type of series: cell-based. The conditions noted are these: hepg2, 24 h, dose 0.1-10 µM.
In series [8] the target is T3, Retinaldehyde dehydrogenase 3 (Homo sapiens, UniProt P47895).
T3 sequence (P47895 whole entry): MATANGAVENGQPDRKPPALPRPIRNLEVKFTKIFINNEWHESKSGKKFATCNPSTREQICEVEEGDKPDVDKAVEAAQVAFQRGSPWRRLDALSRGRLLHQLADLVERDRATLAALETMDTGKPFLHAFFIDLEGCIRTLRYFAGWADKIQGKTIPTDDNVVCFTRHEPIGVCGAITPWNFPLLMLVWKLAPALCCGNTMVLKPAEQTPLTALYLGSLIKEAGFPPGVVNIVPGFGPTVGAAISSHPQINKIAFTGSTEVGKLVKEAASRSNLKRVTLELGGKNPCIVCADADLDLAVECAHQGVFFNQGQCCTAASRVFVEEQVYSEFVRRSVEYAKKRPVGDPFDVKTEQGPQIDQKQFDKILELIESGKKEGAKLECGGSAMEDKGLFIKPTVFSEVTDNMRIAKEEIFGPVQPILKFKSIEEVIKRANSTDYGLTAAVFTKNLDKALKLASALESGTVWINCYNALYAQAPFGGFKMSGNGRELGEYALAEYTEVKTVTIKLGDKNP
Kind of series: Inhibition of human ALDH1A3 assessed as NADH formation using propionaldehyde as substrate by spectrophotometry.

Series [9] addresses T4, Aldehyde dehydrogenase 1A1 (Homo sapiens, UniProt P00352).
T4 sequence (P00352 whole entry): T1 sequence (whole entry)
As to the kind of experiment: Inhibition of human ALDH1A1 assessed as NADH formation using propionaldehyde as substrate by spectrophotometry.

In series [10] the target is T5, Retinal dehydrogenase 2 (Homo sapiens, UniProt O94788).
T5 sequence (O94788 whole entry): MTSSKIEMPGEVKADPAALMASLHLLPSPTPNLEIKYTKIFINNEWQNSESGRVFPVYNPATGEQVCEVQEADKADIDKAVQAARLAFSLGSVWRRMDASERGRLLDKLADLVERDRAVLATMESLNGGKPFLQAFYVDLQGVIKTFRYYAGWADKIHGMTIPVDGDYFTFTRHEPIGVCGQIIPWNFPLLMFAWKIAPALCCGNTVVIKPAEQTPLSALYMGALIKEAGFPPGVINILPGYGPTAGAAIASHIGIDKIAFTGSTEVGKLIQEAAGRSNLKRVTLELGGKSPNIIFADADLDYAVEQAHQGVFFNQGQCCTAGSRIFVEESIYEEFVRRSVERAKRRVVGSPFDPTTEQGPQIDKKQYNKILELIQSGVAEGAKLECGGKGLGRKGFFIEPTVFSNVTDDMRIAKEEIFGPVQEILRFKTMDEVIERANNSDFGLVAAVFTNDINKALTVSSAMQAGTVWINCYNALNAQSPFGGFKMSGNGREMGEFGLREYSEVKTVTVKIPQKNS
Kind of series: Inhibition of human ALDH1A2 assessed as NADH formation using propionaldehyde as substrate by spectrophotometry.

Active and inactive are the calls of the source. No cut-off for these calls is given here.

Broadly, the inhibition is how much of the control response was suppressed. A word on the IC50: it is the point on the concentration scale where inhibition reaches its midpoint.

Regarding `CCn1c(CN2CCN(C(=O)C3CC3)CC2)nc2ccccc21`, the inhibition in series [1] was 20.8%. Still for that read-out and setting: as for `CC(C)CCn1c(NC2CCN(C(=O)C3CC3)CC2)nc2ccccc21`, the figure is 10.8%; as for `CC(C)CCn1c(OC2CCN(C(=O)C3CC3)CC2)nc2ccccc21`, 56.4%. Still for that read-out and setting: as for `CCCC(=O)N1CCN(Cc2nc3ccccc3n2Cc2cccc(C)c2)CC1`, the figure is 79%; as for `COc1ccc(C(=O)N2CCN(Cc3nc4ccccc4n3Cc3cccc(C)c3)CC2)cc1`, 55.5%. Still for that read-out and setting: as for `Cc1cccc(Cn2c(CN3CCN(C(=O)c4ccc([N+](=O)[O-])cc4)CC3)nc3ccccc32)c1`, the figure is 24.3%; as for `Cc1cccc(Cn2c(NC3CCN(C(=O)c4ccco4)CC3)nc3ccccc32)c1`, 27.9%. Turning to `Cc1cccc(Cn2c(CN3CCN(C(=O)C4CCCC4)CC3)nc3ccccc32)c1`, the inhibition in [1] was 67.5%.

For the compound `CC(C)CCn1c(CN2CCN(C(=O)c3ccco3)CC2)nc2c1c(=O)n(C)c(=O)n2C`, the outcome in [2] was inactive. In series [3], the viability at 24 h, 1 µM turned out to be 100%. Besides, the viability at 24 h, 10 µM in series [4] was found to be 98.2%. Moreover, in [5], the viability at 24 h, 0.1 µM is 100%.

`Cc1cccc(Cn2c(CN3CCN(C(=O)c4ccc(C#N)cc4)CC3)nc3ccccc32)c1`: the inhibition in series [1] stood at 20.8%. As to `Cc1cccc(Cn2c(CN3CCN(C(=O)C(C)C)CC3)nc3ccccc32)c1`, in series [1], the inhibition came to 87.2%. Moreover, the Activity is on record as 20% in series [2] and “Non-Toxic” in [7]. Moreover, the IC50 came to 2.27 µM in [6], 2.88 µM in [8], 0.458 µM in [9] and 2.78 µM in [10]. Besides, in series [3], the viability at 24 h, 1 µM is 93.7%. Besides, in series [4], the viability at 24 h, 10 µM was determined as 85.7%. In addition, the viability at 24 h, 0.1 µM in series [5] stood at 98.4%. For `Cc1cccc(Cn2c(CN3CCN(C(=O)c4ccc(Br)cc4)CC3)nc3ccccc32)c1`, the inhibition in [1] was determined as 25.8%. On the same count and under the same terms, as for `Cc1cccc(Cn2c(CN3CCN(C(=O)c4cccnc4)CC3)nc3ccccc32)c1`, the figure is 24.5%; as for `CC(C)CCn1c(CN2CCN(C(=O)c3ccco3)CC2)nc2ccccc21`, 42.1%. Consider `O=C(C1CC1)N1CCN(Cc2nc3ccccc3n2CC2CCCC2)CC1`, for which the inhibition in series [1] is 44.5%.

`CCc1ccc(C(=O)N2CCN(Cc3nc4ccccc4n3Cc3cccc(C)c3)CC2)cc1`: the inhibition in [1] is 67%. Same read-out and setting: as for `CC(C)Cn1c(CN2CCN(C(=O)C3CC3)CC2)nc2ccccc21`, the figure is 13.1%. On the same count and under the same terms, the figure for `Cc1cccc(Cn2c(OC3CCN(C(=O)C4CC4)CC3)nc3ccccc32)c1` is 80.6%. `O=C(C1CC1)N1CCN(Cc2nc3ccccc3n2Cc2ccccc2)CC1`: the inhibition in series [1] was 23.9%. Take `Cc1cccc(Cn2c(CN3CCN(C(=O)c4ccncc4)CC3)nc3ccccc32)c1`: the inhibition in series [1] is 20.6%. Regarding `O=C(C1CC1)N1CCN(Cc2nc3ccccc3n2CC2CC2)CC1`, the inhibition in series [1] turned out to be 21.2%. On to `O=C(C1CC1)N1CCN(Cc2nc3ccccc3n2Cc2ccccc2F)CC1`, for which the inhibition in series [1] worked out at 40.7%. Turning to `Cc1ccc(Cn2c(CN3CCN(C(=O)C4CC4)CC3)nc3ccccc32)cc1`, the inhibition in series [1] came to 51.5%. Still for that read-out and setting: the figure for `Cc1cccc(Cn2c(CN3CCN(C(=O)c4ccc(Cl)cc4)CC3)nc3ccccc32)c1` is 23.2%; for `CC(C)CCn1c(OC2CCN(C(=O)c3ccco3)CC2)nc2ccccc21` it is 30.8%; for `Cc1cccc(Cn2c(CN3CCN(C(=O)C4CCCCC4)CC3)nc3ccccc32)c1` it is 31.9%. Still for that read-out and setting: the figure for `Cc1ccc(C(=O)N2CCN(Cc3nc4ccccc4n3Cc3cccc(C)c3)CC2)cc1` is 64.9%; for `Cc1cccc(Cn2c(CN3CCN(C(=O)c4ccc(C(C)C)cc4)CC3)nc3ccccc32)c1` it is 67.6%; for `Cc1ccccc1Cn1c(CN2CCN(C(=O)C3CC3)CC2)nc2ccccc21` it is 29.1%.

`Cc1cccc(Cn2c(NC3CCN(C(=O)C4CC4)CC3)nc3ccccc32)c1`: the inhibition in series [1] came to 49.1%.

For `CC(C)CCn1c(CN2CCN(C(=O)C3CC3)CC2)nc2ccccc21`, the inhibition in [1] stood at 70%. Consider `Cc1cccc(Cn2c(OC3CCN(C(=O)c4ccco4)CC3)nc3ccccc32)c1`, for which, in series [1], the inhibition amounted to 68.3%. As for `CCCCn1c(CN2CCN(C(=O)C3CC3)CC2)nc2ccccc21`, the inhibition in series [1] was determined as 18.2%. Same read-out and setting: as for `Cc1cccc(Cn2c(CN3CCN(C(=O)c4ccco4)CC3)nc3ccccc32)c1`, the figure is 73.2%. Regarding `Cc1cccc(Cn2c(CN3CCN(C(=O)c4ccc(C(F)(F)F)cc4)CC3)nc3ccccc32)c1`, the inhibition in series [1] was found to be 22.9%. Still for that read-out and setting: as for `O=C(C1CC1)N1CCN(Cc2nc3ccccc3n2Cc2ccc(Cl)cc2)CC1`, the figure is 56.6%; as for `Cc1cccc(Cn2c(CN3CCN(C(=O)C4CCC4)CC3)nc3ccccc32)c1`, 69.1%. As for `CC(=O)N1CCN(Cc2nc3ccccc3n2Cc2cccc(C)c2)CC1`, in [1], the inhibition stood at 70.3%. Still for that read-out and setting: the figure for `O=C(C1CC1)N1CCN(Cc2nc3ccccc3n2Cc2ccccc2C(F)(F)F)CC1` is 56.3%.

With `Cc1cccc(Cn2c(CN3CCN(C(=O)CC(C)C)CC3)nc3ccccc32)c1`, the inhibition in series [1] was found to be 71.4%.

Turning to `Cc1cccc(Cn2c(CN3CCN(C(=O)c4ccc(F)cc4)CC3)nc3ccccc32)c1`, the inhibition in series [1] was 27.1%. Still for that read-out and setting: as for `O=C(C1CC1)N1CCN(Cc2nc3ccccc3n2Cc2cccc(F)c2)CC1`, the figure is 27.1%. Turning to `Cc1cccc(Cn2c(CN3CCN(C(=O)c4ccccc4)CC3)nc3ccccc32)c1`, the inhibition in series [1] turned out to be 60.9%. Same read-out and setting: as for `O=C(C1CC1)N1CCN(Cc2nc3ccccc3n2Cc2ccc(F)cc2)CC1`, the figure is 32.7%; as for `COc1cccc(Cn2c(CN3CCN(C(=O)C4CC4)CC3)nc3ccccc32)c1`, 44.4%. On the same count and under the same terms, as for `Cc1cccc(Cn2c(CN3CCN(C(=O)c4cccs4)CC3)nc3ccccc32)c1`, the figure is 60.8%. For `O=C(C1CC1)N1CCN(Cc2nc3ccccc3n2Cc2ccc(C(F)(F)F)cc2)CC1`, the inhibition in series [1] was found to be 37%.
